Earlier results in patent publication US20160310552A1, “NORTHERN WHITE KIDNEY BEAN EXTRACT AND CERATONIA SILIQUA EXTRACT IN COMBINATION WITH GREEN TEA EXTRACT IN THE TREATMENT OF EXCESS WEIGHT AND OBESITY” (priority 2015, published 2016).

How the values were obtained:
[1] = during a 12 month period
[2] = preliminary data; 10% with placebo

For `CC(C)CC(N(C)C)C1(c2ccc(Cl)cc2)CCC1` (centres unmarked) [sibutramine], which Weight loss [1] is on record?
The Weight loss was 5-10%.

And the “Subjects who died or had a heart attack, a stroke or cardiac arrest” value [2]?
Its value is 11.4%.
